In brackets after ≈: the same amount, converted by molar mass.
Tests used:
Pseud.aerug. H 10 = assay: agar serial dilution test; format: cell-based; details: agar serial dilution, 24 hours, 37° C.; read-out: minimal inhibitory concentration (MIC)
Staph.aureus A 2000 [1] = assay: agar serial dilution test; format: cell-based, Staphylococcus aureus; details: Staphylococcus aureus, A2000, 24 h, agar serial dilution, 24 hours, 37° C.; read-out: minimal inhibitory concentration (MIC)
Strep.haem. A 266 = assay: agar serial dilution test; format: cell-based, Streptococcus haemolyticus; details: Streptococcus; agar serial dilution, 24 hours, 37° C.; read-out: minimal inhibitory concentration (MIC)
Staph.aureus A 2001 [2] = assay: agar serial dilution test; format: cell-based, Staphylococcus aureus; details: Staphylococcus aureus, A2001, 24 h, agar serial dilution, 24 hours, 37° C.; read-out: minimal inhibitory concentration (MIC)
Pseud.aerug. 2396 = assay: agar serial dilution test; format: cell-based; details: agar serial dilution, 24 hours, 37° C.; read-out: minimal inhibitory concentration (MIC)
Dipl.pneum. L 54 = assay: agar serial dilution test; format: cell-based, Diplococcus pneumoniae; details: Streptococcus pneumoniae; agar serial dilution, 24 hours, 37° C.; read-out: minimal inhibitory concentration (MIC)
Staph.aureus A 2001 [3] = assay: micro serial dilution test; format: cell-based, Staphylococcus aureus; details: Staphylococcus aureus, A2001, 18 h, micro serial dilution (in brackets), about 18 hours, 30° C. or 37° C.; read-out: minimal inhibitory concentration (MIC)
Prot.mirab. H 3 = assay: agar serial dilution test; format: cell-based, Proteus mirabilis; details: Proteus mirabilis; agar serial dilution, 24 hours, 37° C.; read-out: minimal inhibitory concentration (MIC)
Bruc.melit. A 488 = assay: microbe, parasite or virus in culture; format: cell-based; details: Brucella melitensis, 24 h, read-out: minimal inhibitory concentration (MIC)
Strep. faec. L 80 = assay: agar serial dilution test; format: cell-based, Streptococcus faecalis; details: Enterococcus faecalis; agar serial dilution, 24 hours, 37° C.; read-out: minimal inhibitory concentration (MIC)
Staph.aureus A 355 [4] = assay: agar serial dilution test; details: Staphylococcus aureus, A355, 24 h, read-out: minimal inhibitory concentration (MIC), agar serial dilution, 24 hours, 37° C.; penicillinase-producing strain
Prot.rettg. A 821 = assay: agar serial dilution test; format: cell-based, Proteus rettgeri; details: Providencia rettgeri, 24 h, agar serial dilution, 24 hours, 37° C.; read-out: minimal inhibitory concentration (MIC)
Staph.aureus A 2000 [5] = assay: micro serial dilution test; format: cell-based, Staphylococcus aureus; details: Staphylococcus aureus, A2000, 18 h, micro serial dilution (in brackets), about 18 hours, 30° C. or 37° C.; read-out: minimal inhibitory concentration (MIC)
Esch.coli U 20 = assay: agar serial dilution test; format: cell-based, Escherichia coli; details: Escherichia coli, U20; agar serial dilution, 24 hours, 37° C.; read-out: minimal inhibitory concentration (MIC)
Prot.morg. 2241 = assay: agar serial dilution test; format: cell-based; details: 24 h, agar serial dilution, 24 hours, 37° C.; read-out: minimal inhibitory concentration (MIC)
Haem.infl. A 1030 = assay: micro serial dilution test; format: cell-based; details: 18 h, micro serial dilution (in brackets), about 18 hours, 30° C. or 37° C.; read-out: minimal inhibitory concentration (MIC)
Salm.typh. R 127 = assay: agar serial dilution test; format: cell-based; details: 24 h, 37° C., read-out: minimal inhibitory concentration (MIC)
Staph.aureus A 355 [6] = assay: micro serial dilution test; format: cell-based, Staphylococcus aureus; details: Staphylococcus aureus, A355; micro serial dilution (in brackets), about 18 hours, 30° C. or 37° C.; penicillinase-producing strain; read-out: minimal inhibitory concentration (MIC)
Staph.aureus A 321 = assay: agar serial dilution test; format: cell-based, Staphylococcus aureus; details: Staphylococcus aureus, A321, 24 h, agar serial dilution, 24 hours, 37° C.; read-out: minimal inhibitory concentration (MIC)
Prot.mirab. A 1200 = assay: agar serial dilution test; format: cell-based, Proteus mirabilis; details: Proteus mirabilis, 24 h, agar serial dilution, 24 hours, 37° C.; read-out: minimal inhibitory concentration (MIC)
Shig.equir. T 3 = assay: agar serial dilution test; format: cell-based; details: 24 h, 37° C., read-out: minimal inhibitory concentration (MIC)
Salm.dubl. P 43 = assay: agar serial dilution test; format: cell-based, Salmonella dublin; details: Salmonella enterica; agar serial dilution, 24 hours, 37° C.; read-out: minimal inhibitory concentration (MIC)
Past.multo. A 723 = assay: agar serial dilution test; format: cell-based, Pasteurella multocida; details: Pasteurella multocida; agar serial dilution, 24 hours, 37° C.; read-out: minimal inhibitory concentration (MIC)
Bac.Subt.ATCC 6633 = assay: agar serial dilution test; format: cell-based, Bacillus subtilis; details: Bacillus subtilis, ATCC6633, 24 h, agar serial dilution, 24 hours, 37° C.; read-out: minimal inhibitory concentration (MIC)
Kleb.pneum. A 809 = assay: agar serial dilution test; format: cell-based, Klebsiella pneumoniae; details: Klebsiella pneumoniae; agar serial dilution, 24 hours, 37° C.; read-out: minimal inhibitory concentration (MIC)
Prot.mirab. L 93 = assay: agar serial dilution test; format: cell-based, Proteus mirabilis; details: Proteus mirabilis; agar serial dilution, 24 hours, 37° C.; read-out: minimal inhibitory concentration (MIC)
[7] = test system: Pseud.aerug. Wyeth A 1058; assay: agar serial dilution test; format: cell-based; details: agar serial dilution, 24 hours, 37° C.; read-out: minimal inhibitory concentration (MIC)

SMILES: COCc1noc(CC(=O)N[C@@H]2C(=O)N3[C@@H]2SC(C)(C)[C@@H]3C(=O)O)n1 [Compound A, 6-[(3-methoxymethyl-1,2,4-oxadiazol-5-yl)-acetamido]-penicillanic acid]
- MIC (Pseud.aerug. H 10): > 100 µg/mL
- MIC (Staph.aureus A 2000 [1]): 6 µg/mL (≈ 16.2 µM)
- MIC (Strep.haem. A 266): 0.03 µg/mL (≈ 0.081 µM)
- MIC (Staph.aureus A 2001 [2]): 1.5 µg/mL (≈ 4.05 µM)
- MIC (Pseud.aerug. 2396): > 100 µg/mL
- MIC (Dipl.pneum. L 54): 0.25 µg/mL (≈ 0.675 µM)
- MIC (Staph.aureus A 2001 [3]): 3.7 µg/mL (≈ 9.99 µM)
- MIC (Prot.mirab. H 3): > 100 µg/mL
- MIC (Bruc.melit. A 488): 0.5 µg/mL (≈ 1.35 µM)
- MIC (Strep. faec. L 80): 6 µg/mL (≈ 16.2 µM)
- MIC (Staph.aureus A 355 [4]): 6 µg/mL (≈ 16.2 µM)
- MIC (Prot.rettg. A 821): 6 µg/mL (≈ 16.2 µM)
- MIC (Staph.aureus A 2000 [5]): 90 µg/mL (≈ 243 µM)
- MIC (Esch.coli U 20): 50 µg/mL (≈ 135 µM)
- MIC (Prot.morg. 2241): > 100 µg/mL
- MIC (Haem.infl. A 1030): 4 µg/mL (≈ 10.8 µM)
- MIC (Salm.typh. R 127): 25 µg/mL (≈ 67.5 µM)
- MIC (Staph.aureus A 355 [6]): 60 µg/mL (≈ 162 µM)
- MIC (Staph.aureus A 321): 0.5 µg/mL (≈ 1.35 µM)
- MIC (Prot.mirab. A 1200): 100 µg/mL (≈ 270 µM)
- MIC (Shig.equir. T 3): 1.5 µg/mL (≈ 4.05 µM)
- MIC (Salm.dubl. P 43): 12.5 µg/mL (≈ 33.7 µM)
- MIC (Past.multo. A 723): 1 µg/mL (≈ 2.7 µM)
- MIC (Bac.Subt.ATCC 6633): 0.06 µg/mL (≈ 0.162 µM)
- MIC (Kleb.pneum. A 809): > 100 µg/mL
- MIC (Prot.mirab. L 93): 12.5 µg/mL (≈ 33.7 µM)
- MIC [7]: > 100 µg/mL

SMILES: CC(=O)OCC1=C(C(=O)O)N2C(=O)[C@@H](NC(=O)C(c3ccccc3)c3nc(C)no3)[C@H]2SC1 (stereo partly drawn) [Compound B, 7-[α-phenyl-(3-methyl-1,2,4-oxadiazol-5-yl)-acetamido]-3-acetoxymethyl-3-cephem-4-carboxylic acid]
- MIC (Pseud.aerug. H 10): > 100 µg/mL
- MIC (Staph.aureus A 2000 [1]): 1.5 µg/mL (≈ 3.17 µM)
- MIC (Strep.haem. A 266): 0.5 µg/mL (≈ 1.06 µM)
- MIC (Staph.aureus A 2001 [2]): 1.5 µg/mL (≈ 3.17 µM)
- MIC (Pseud.aerug. 2396): > 100 µg/mL
- MIC (Dipl.pneum. L 54): 1 µg/mL (≈ 2.12 µM)
- MIC (Staph.aureus A 2001 [3]): 1.2 µg/mL (≈ 2.54 µM)
- MIC (Prot.mirab. H 3): > 100 µg/mL
- MIC (Bruc.melit. A 488): 1.5 µg/mL (≈ 3.17 µM)
- MIC (Strep. faec. L 80): 50 µg/mL (≈ 106 µM)
- MIC (Staph.aureus A 355 [4]): 1.5 µg/mL (≈ 3.17 µM)
- MIC (Prot.rettg. A 821): 3 µg/mL (≈ 6.35 µM)
- MIC (Staph.aureus A 2000 [5]): 1.2 µg/mL (≈ 2.54 µM)
- MIC (Esch.coli U 20): > 100 µg/mL
- MIC (Prot.morg. 2241): > 100 µg/mL
- MIC (Haem.infl. A 1030): 1.2 µg/mL (≈ 2.54 µM)
- MIC (Salm.typh. R 127): > 100 µg/mL
- MIC (Staph.aureus A 355 [6]): 1.2 µg/mL (≈ 2.54 µM)
- MIC (Staph.aureus A 321): 0.5 µg/mL (≈ 1.06 µM)
- MIC (Prot.mirab. A 1200): > 100 µg/mL
- MIC (Shig.equir. T 3): > 100 µg/mL
- MIC (Salm.dubl. P 43): > 100 µg/mL
- MIC (Past.multo. A 723): 0.5 µg/mL (≈ 1.06 µM)
- MIC (Bac.Subt.ATCC 6633): 0.25 µg/mL (≈ 0.529 µM)
- MIC (Kleb.pneum. A 809): 6 µg/mL (≈ 12.7 µM)
- MIC (Prot.mirab. L 93): 25 µg/mL (≈ 52.9 µM)
- MIC [7]: > 100 µg/mL

SMILES: CC1=C(C(=O)O)N2C(=O)[C@@H](NC(=O)Cc3nc(Cc4ccccc4)no3)[C@H]2SC1 [Example 7, 7-[(3-benzyl-1,2,4-oxadiazol-5-yl)-acetamido]-desacetoxycephalosporanic acid]
- MIC (Pseud.aerug. H 10): > 100 µg/mL
- MIC (Staph.aureus A 2000 [1]): 25 µg/mL (≈ 60.3 µM)
- MIC (Strep.haem. A 266): 25 µg/mL (≈ 60.3 µM)
- MIC (Staph.aureus A 2001 [2]): 6 µg/mL (≈ 14.5 µM)
- MIC (Pseud.aerug. 2396): > 100 µg/mL
- MIC (Dipl.pneum. L 54): 4 µg/mL (≈ 9.65 µM)
- MIC (Staph.aureus A 2001 [3]): 5 µg/mL (≈ 12.1 µM)
- MIC (Prot.mirab. H 3): > 100 µg/mL
- MIC (Bruc.melit. A 488): 25 µg/mL (≈ 60.3 µM)
- MIC (Strep. faec. L 80): 100 µg/mL (≈ 241 µM)
- MIC (Staph.aureus A 355 [4]): 100 µg/mL (≈ 241 µM)
- MIC (Prot.rettg. A 821): > 100 µg/mL
- MIC (Staph.aureus A 2000 [5]): 4 µg/mL (≈ 9.65 µM)
- MIC (Esch.coli U 20): > 100 µg/mL
- MIC (Prot.morg. 2241): > 100 µg/mL
- MIC (Haem.infl. A 1030): 30 µg/mL (≈ 72.4 µM)
- MIC (Salm.typh. R 127): > 100 µg/mL
- MIC (Staph.aureus A 355 [6]): 8 µg/mL (≈ 19.3 µM)
- MIC (Staph.aureus A 321): 3 µg/mL (≈ 7.24 µM)
- MIC (Prot.mirab. A 1200): > 100 µg/mL
- MIC (Shig.equir. T 3): > 100 µg/mL
- MIC (Salm.dubl. P 43): 100 µg/mL (≈ 241 µM)
- MIC (Past.multo. A 723): 25 µg/mL (≈ 60.3 µM)
- MIC (Bac.Subt.ATCC 6633): 3 µg/mL (≈ 7.24 µM)
- MIC (Kleb.pneum. A 809): 100 µg/mL (≈ 241 µM)
- MIC (Prot.mirab. L 93): > 100 µg/mL
- MIC [7]: > 100 µg/mL

Source: patent US4160829A, “Antibacterial 1,2,4-oxadiazolylacetamido cephalosporins” (Gist-Brocades N.V., priority 1972, dated 1979)
